Experimental data published in paper PMC7256108 (Cellular and Molecular Life Sciences: CMLS, 2019).
Values joined by “and” are separate entries in the source; they are usually repeats but may differ in a detail not shown here. Equal entries are not always repeated. Where two headings read alike, the source gives them in different places.

Assays:
Format in all cases: cell-based
OR2M3 C202A = biological target: T1, OR2M3 C202A (Homo sapiens, UniProt Q8NG83, C202A); assay: GloSensor assay, OR2M3 C202A; conditions: even in the presence of Cu^2+, agonist 20 µmol/L
T1 construct: 39aa rho-tag; expressed in transfected cells; host or cells: NxG 108CC15 or HEK-293 cells
T1 sequence (Q8NG83 whole entry C202A): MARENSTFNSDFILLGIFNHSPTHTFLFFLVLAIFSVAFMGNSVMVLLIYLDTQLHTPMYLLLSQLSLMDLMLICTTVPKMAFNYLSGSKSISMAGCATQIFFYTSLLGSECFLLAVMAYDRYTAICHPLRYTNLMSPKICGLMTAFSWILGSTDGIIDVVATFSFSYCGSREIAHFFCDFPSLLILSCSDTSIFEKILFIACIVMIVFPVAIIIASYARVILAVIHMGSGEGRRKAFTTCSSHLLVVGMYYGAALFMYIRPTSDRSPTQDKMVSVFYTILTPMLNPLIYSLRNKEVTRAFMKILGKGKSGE
Protocol: (§1) All receptor variants used were generated by PCR-based site-directed mutagenesis in two steps. Gene-specific primers (mutation primers) were used according to Table S2 and Table S3. The mutation primers, which carried the changed nucleotides, were designed overlapping.
(§2) The assay was performed as reported above.
(§3) All data are presented as mean ± SD.

OR2M3 C203S = biological target: T2, OR2M3 C203S (Homo sapiens, UniProt Q8NG83, C203S); assay: GloSensor assay, OR2M3 C203S; conditions: 10 µmol/L Cu^2+, read-out: EC50 in the presence of Cu^2+
T2 construct: 39aa rho-tag; expressed in transfected cells; host or cells: NxG 108CC15 or HEK-293 cells
T2 sequence (Q8NG83 whole entry C203S): as the sequence (Q8NG83 whole entry C202A) above, with A202C, C203S counted along it
Protocol: as §1, §2, §3

OR2M3 C112S = biological target: T3, OR2M3 C112S (Homo sapiens, UniProt Q8NG83, C112S); assay: GloSensor assay, OR2M3 C112S; conditions: presence of copper 10 µmol/L, agonist 20 µmol/L
T3 construct: 39aa rho-tag; expressed in transfected cells; host or cells: NxG 108CC15 or HEK-293 cells
T3 sequence (Q8NG83 whole entry C112S): as the sequence (Q8NG83 whole entry C202A) above, with C112S, A202C counted along it
Protocol: as §1, §2, §3

OR2M3 C203Y = biological target: T4, OR2M3 C203Y (Homo sapiens, UniProt Q8NG83, C203Y); assay: GloSensor assay, OR2M3 C203Y; conditions: in the absence or presence of Cu^2+
T4 construct: full-length gene-specific forward and reverse primers were added; 39aa rho-tag; expressed in transfected cells; host or cells: NxG 108CC15 or HEK-293 cells
T4 sequence (Q8NG83 whole entry C203Y): as the sequence (Q8NG83 whole entry C202A) above, with A202C, C203Y counted along it
Protocol: as §1, §2, §3

OR2M3 H244A = biological target: T5, OR2M3 H244A (Homo sapiens, UniProt Q8NG83, H244A); assay: GloSensor assay, OR2M3 H244A; conditions: OR2M3 His244 to alanine; in the absence or presence of Cu^2+
T5 construct: 39aa rho-tag; expressed in transfected cells; host or cells: NxG 108CC15 or HEK-293 cells
T5 sequence (Q8NG83 whole entry H244A): as the sequence (Q8NG83 whole entry C202A) above, with A202C, H244A counted along it
Protocol: as §1, §2, §3

OR2M3 M206I = biological target: T6, OR2M3 M206I (Homo sapiens, UniProt Q8NG83, M206I); assay: GloSensor assay, OR2M3 M206I; conditions: OR2M3 M206I (SNP haplotype)
T6 construct: 39aa rho-tag; expressed in transfected cells; host or cells: NxG 108CC15 or HEK-293 cells
T6 sequence (Q8NG83 whole entry M206I): as the sequence (Q8NG83 whole entry C202A) above, with A202C, M206I counted along it
Excerpt: as §1, §3
(§4) (a) Schematic snake diagram with localization of mutated amino acid positions within OR2M3, which have been chosen because of their close vicinity to putative interaction sites with odorants as proposed by Man et al. (red circles). Effects of 3-mercapto-2-methylpentan-1-ol on OR2M3 variants (black curves) with SNP-defined single amino acid changes at positions 104^3.32 (b), 206^5.45 (c), and 207^5.46 (d). Note that the same data set for 3-mercapto-2-methylpentan-1-ol on OR2M3 wt (grey, see also Fig. 1b, d) is given in panels (b)-(d) for didactic reasons. […] RLU = relative luminescence unit. 3MMP = 3-mercapto-2-methylpentan-1-ol.

OR2M3 C112A = biological target: T7, OR2M3 C112A (Homo sapiens, UniProt Q8NG83, C112A); assay: GloSensor assay, OR2M3 C112A
T7 construct: 39aa rho-tag; expressed in transfected cells; host or cells: NxG 108CC15 or HEK-293 cells
T7 sequence (Q8NG83 whole entry C112A): as the sequence (Q8NG83 whole entry C202A) above, with C112A, A202C counted along it
Protocol: as §1, §2, §3

OR2M3 I207L = biological target: T8, OR2M3 I207L (Homo sapiens, UniProt Q8NG83, I207L); assay: GloSensor assay, OR2M3 I207L; conditions: OR2M3 I207L (SNP haplotype)
T8 construct: full-length gene-specific forward and reverse primers were added; 39aa rho-tag; expressed in transfected cells; host or cells: NxG 108CC15 or HEK-293 cells
T8 sequence (Q8NG83 whole entry I207L): as the sequence (Q8NG83 whole entry C202A) above, with A202C, I207L counted along it
Excerpt: as §1, §3, §4

OR2M3 C241A = biological target: T9, OR2M3 C241A (Homo sapiens, UniProt Q8NG83, C241A); assay: GloSensor assay, OR2M3 C241A; conditions: OR2M3 Cys241 to alanine; in the absence or presence of Cu^2+
T9 construct: 39aa rho-tag; expressed in transfected cells; host or cells: NxG 108CC15 or HEK-293 cells
T9 sequence (Q8NG83 whole entry C241A): as the sequence (Q8NG83 whole entry C202A) above, with A202C, C241A counted along it
Protocol: as §1, §2, §3

OR2M3 C203A = biological target: T10, OR2M3 C203A (Homo sapiens, UniProt Q8NG83, C203A); assay: GloSensor assay, OR2M3 C203A; conditions: even in the presence of Cu^2+, agonist 20 µmol/L
T10 construct: 39aa rho-tag; expressed in transfected cells; host or cells: NxG 108CC15 or HEK-293 cells
T10 sequence (Q8NG83 whole entry C203A): as the sequence (Q8NG83 whole entry C202A) above, with A202C, C203A counted along it
Protocol: as §1, §2, §3

OR2M3 T105A = biological target: T11, OR2M3 T105A (Homo sapiens, UniProt Q8NG83, T105A); assay: GloSensor assay, OR2M3 T105A
T11 construct: 39aa rho-tag; expressed in transfected cells; host or cells: NxG 108CC15 or HEK-293 cells
T11 sequence (Q8NG83 whole entry T105A): as the sequence (Q8NG83 whole entry C202A) above, with T105A, A202C counted along it
Protocol: as §1, §2, §3

OR2M3 C202S = biological target: T12, OR2M3 C202S (Homo sapiens, UniProt Q8NG83, C202S); assay: GloSensor assay, OR2M3 C202S; conditions: even in the presence of Cu^2+, agonist 20 µmol/L
T12 construct: full-length gene-specific forward and reverse primers were added; 39aa rho-tag; expressed in transfected cells; host or cells: NxG 108CC15 or HEK-293 cells
T12 sequence (Q8NG83 whole entry C202S): as the sequence (Q8NG83 whole entry C202A) above, with A202S counted along it
Protocol: as §1, §2, §3

OR2M3 Y104C = biological target: T13, OR2M3 Y104C (Homo sapiens, UniProt Q8NG83, Y104C); assay: GloSensor assay, OR2M3 Y104C; conditions: OR2M3 Y104C (SNP haplotype)
T13 construct: full-length gene-specific forward and reverse primers were added; 39aa rho-tag; expressed in transfected cells; host or cells: NxG 108CC15 or HEK-293 cells
T13 sequence (Q8NG83 whole entry Y104C): as the sequence (Q8NG83 whole entry C202A) above, with Y104C, A202C counted along it
Excerpt: as §1, §3, §4

OR2M3 wt = biological target: T14, OR2M3 wt (Homo sapiens, UniProt Q8NG83); assay: cAMP-luminescence GloSensor assay, recombinant OR2M3 wt; conditions: OR2M3 wt
T14 construct: full-length gene-specific forward and reverse primers were added; 39aa rho-tag; expressed in transfected cells; host or cells: NxG 108CC15 or HEK-293 cells
T14 sequence (Q8NG83 1-312): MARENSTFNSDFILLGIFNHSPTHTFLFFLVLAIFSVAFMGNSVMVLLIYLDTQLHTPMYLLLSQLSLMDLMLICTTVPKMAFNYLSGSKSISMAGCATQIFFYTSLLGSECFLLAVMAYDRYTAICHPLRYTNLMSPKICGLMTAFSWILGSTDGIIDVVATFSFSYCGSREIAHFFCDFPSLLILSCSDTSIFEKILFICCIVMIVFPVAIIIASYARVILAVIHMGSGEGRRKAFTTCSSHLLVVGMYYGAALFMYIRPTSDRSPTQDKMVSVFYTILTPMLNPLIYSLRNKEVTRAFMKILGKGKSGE
Protocol: as §2, §3

[1] = 10 µmol/L Cu^2+, read-out: EC50 in the presence of Cu^2+
[2] = presence of copper 10 µmol/L, agonist 20 µmol/L

- agonist function in mutant receptor (OR2M3 C202A): complete loss-of-function
- EC50 (OR2M3 C203S): 3160 ± 10 nM
- agonist function in mutant receptor (OR2M3 C112S): rescued
- agonist function in mutant receptor (OR2M3 C203Y): complete loss-of-function
- agonist function in mutant receptor (OR2M3 H244A): not functional anymore
- receptor function (response to agonist) (OR2M3 M206I): complete loss-of-function
- EC50 (OR2M3 C112A; [1]): 860 ± 4 nM
- agonist function in mutant receptor (OR2M3 C112A; [2]): rescued
- EC50 (OR2M3 I207L): 1410 ± 40 nM
- agonist function in mutant receptor (OR2M3 C241A): not functional anymore
- agonist function in mutant receptor (OR2M3 C203A): complete loss-of-function
- EC50 (OR2M3 T105A; [1]): 750 ± 270 nM
- agonist function in mutant receptor (OR2M3 T105A; [2]): rescued
- agonist function in mutant receptor (OR2M3 C202S): complete loss-of-function
- EC50 (OR2M3 Y104C): 1020 ± 180 nM
- EC50 (OR2M3 wt; 10 µmol/L Cu^2+, mean ± SD (n = 3–5), read-out: EC50 in the presence of Cu^2+): 290 ± 100 nM
- Relative amplitude (OR2M3 wt; 30 µmol/L AgAc, normalized to wt signal without Cu^2+): 5.72 ± 0.42
- EC50 (OR2M3 wt; 30 µmol/L AgAc, read-out: EC50): 870 ± 500 nM
- Relative amplitude (OR2M3 wt; 30 µmol/L AgNO3, normalized to wt signal without Cu^2+): 6.41 ± 1.17
- EC50 (OR2M3 wt; 30 µmol/L AgNO3, read-out: EC50): 1490 ± 360 nM
- EC50 (OR2M3 wt; 30 µmol/L CoCl2, read-out: EC50): 730 ± 260 nM
- EC50 (OR2M3 wt; 30 µmol/L CuCl2 + copper chelator TEPA, read-out: EC50): 1130 ± 360 nM
- EC50 (OR2M3 wt; 30 µmol/L FeCl3, read-out: EC50): 1670 ± 340 nM
- EC50 (OR2M3 wt; 30 µmol/L NiCl2, read-out: EC50): 1090 ± 630 nM
- Relative amplitude (OR2M3 wt; 30 µmol/L ZnSO4, n.d. = no detectable response up to 60 µmol/L): complete loss-of-function
- Relative amplitude (OR2M3 wt; 30 µmol/L colloidal Ag, normalized to wt signal without Cu^2+): 3.52 ± 0.69
- EC50 (OR2M3 wt; 30 µmol/L colloidal Ag, read-out: EC50): 760 ± 350 nM
- Hill coefficient (OR2M3 wt; absence of copper (n = 4)): 0.89 ± 0.41
- Relative amplitude (OR2M3 wt; copper concentration 60 µmol, normalized to wt signal without Cu^2+): 1.42 ± 0.64
- EC50 (OR2M3 wt; copper concentration 60 µmol, read-out: EC50): 1470 ± 120 nM
- Relative amplitude (OR2M3 wt; copper concentration 100 µmol, normalized to wt signal without Cu^2+): 0.73 ± 0.48
- EC50 (OR2M3 wt; copper concentration 100 µmol, read-out: EC50): 1950 ± 300 nM
- EC50 (OR2M3 wt; no metal supplementation (w/o), mean ± SD (n = 3–5), read-out: EC50 in the absence of Cu^2+): 450 ± 190 nM
- EC50 (OR2M3 wt; presence of 30 µmol/L CuCl2, read-out: EC50): 550 ± 10 nM
- Hill coefficient (OR2M3 wt; presence of copper (10 µmol/L) (n = 4)): 1.9 and 1.93 ± 0.71 and ~2
- increase in amplitude (OR2M3 wt; supplementation with ionic or colloidal silver, 30 µmol/L): three-to-sixfold increase in amplitude
- Relative amplitude (OR2M3 wt; w/o metal, normalized to OR2M3 wt signal with 3-mercapto-2-methylpentan-1-ol (20 µmol/L) in the absence of Cu^2+ (reference)): 1
SMILES: CCC(S)C(C)CO (stereo not shown) [3-Mercapto-2-methylpentan-1-ol, 3-mercapto-2-methylpentan-1-ol]
